Three molecules from article PMC10525585, “Evaluation of the Antibacterial Effect of Aurone-Derived Triazoles on Staphylococcus aureus” (Antibiotics, 2023) can be followed below.

Where two headings read alike, the source gives them in different places. Bounds are passed on as bounds.

In series [1] the test system is methicillin-sensitive S. aureus ATCC 29213 (MSSA). Put plainly: microbe, parasite or virus in culture. Particulars: for Max SI (CC50/IC50): HepG2 CC50 / MSSA IC50; for IC50 / inhibition at 100 µM: Staphylococcus aureus; for IC50: read-out: IC50 (µM) MSSA; for inhibition at 100 µM: read-out: MSSA inhibition (100µM). On the procedure:
(§1) MRSA strain ATCC 43300 and MSSA strain S. aureus ATCC 29213 were grown on Tryptic Soy Agar (TSA) plates. Before use, an isolated colony was transferred from the TSA plate into Tryptic Soy Broth (TSB) and incubated 18–24 h in a humidified incubator at 37 °C. To adjust for a standard concentration of bacteria, the turbidity of the culture was measured at 600 nm, and its optical density (OD600) adjusted to be in the range 0.08–0.12 which equates to a concentration of approximately 1 × 10^8 CFU/mL. This suspension was diluted 1:20 in TSB. […] MRSA strain S. aureus ATCC 43300 and MSSA strain S. aureus ATCC 29213 were used for all testing in this study.
(§2) The assay for anti-Staphylococcal activity of AT compounds was prepared in 96-well transparent, U-bottom plates. A series of 2-fold dilutions of AT concentrations was tested in triplicate, with each well containing 10 µL of prepared bacterium and 90 µL of AT mixture in CAMHB. […] Blank wells with only CAMHB, a negative control well with 10 µL of bacterium solution mixed into 90 µL CAMHB, a vehicle control well with bacteria mixed into 1% DMSO in CAMBH, and a positive cell death control with vancomycin (1 µL of stock 2 mg/mL solution in 89 µL CAMHB with 10 µL of bacteria) were included. The plate was incubated for 18–24 h at 37 °C in a humidified incubator. Before measurement, PrestoBlue^TM dye (Invitrogen, Carlsbad, CA, USA) was added (10 µL per well) and incubated for 1 h with aluminum foil covering the plate. A CLARIOstar® (BMG LABTECH, Cary, NC, USA) multi-mode plate reader was used to measure the fluorescence at wavelengths of 560 nm for excitation and 590 nm for emission. Inhibitory concentration (IC50) values were defined as half inhibitory concentration and were computed using GraphPad Prism version 9.1 software.

Series [2] deals with methicillin-resistant S. aureus ATCC 43300 (MRSA). Nature of the series: Antibacterial assay (broth microdilution, PrestoBlue). The class given is cell-based, Staphylococcus aureus. As for the experimental part: as §1, §2
Background: Broth dilution looks for growth in wells or tubes with falling amounts of substance.

A short description of the next series: Hemolysis assay. The series is classed as cell-based, human. Particulars: human, human red blood cells (0.5% final suspension, single donor), 1 h, 37 °C, read-out: Hemolysis by AT Compounds (%). On the procedure:
(§3) A single donor-specific blood sample was acquired from Innovative Research Inc. (Novi, MI, USA) for the assay (donor#:1WB3ALS40ML-36517). A volume of 1–2 mL of the human red blood cells (hRBCs in Alsevier’s solution) was mixed with 8–10 mL of Phosphate-Buffered Saline (PBS) in a 15 mL centrifuge tube to pellet by centrifugation at 1400× g in a swinging bucket centrifuge for 10 min. The supernatant was then removed, and the cells were washed with 10 mL of PBS two additional times. The cells were resuspended in PBS to achieve a final 1% solution of hRBCs.
(§4) The wells of a 96-well U-bottom plate that contained AT compounds were prefilled with 50 µL of PBS. A 2-fold dilution of AT compounds was prepared. For each triplicate, an initial AT dilution was prepared using 6 µL of AT stock solution in 144 µL of PBS. This initial mixture was diluted 2-fold on a 96-well plate following the method described above for a final volume of 50 µL of diluted AT in each well. As a final step, 50 µL of the 1% hRBC solution was added to each well, except the blank wells. PBS and hRBCs were used for negative control, whereas hRBCs with 1% and 0.1% Triton-X100 were used as positive controls. After 1 h of incubation at 37 °C in a humidified incubator, the plate was centrifuged at 1000 rpm for 10 min in a Thermo Sorvall Legend XTR centrifuge with a TX-750 swinging bucket rotor (Thermo Fisher Scientific, Waltham, MA, USA) to pellet intact cells. After centrifugation, 50 µL of supernatant was transferred from each well into a new 96-well U-bottom plate and hemolysis of the hRBCs detected in a plate-reader for absorbance at 405 nm. Hemolytic activity for all concentrations of the ATs was computed following this formula:(1) % hemolysis=OD405nmsample− OD405nmnegative control/OD405nmpositivecontrol[…]

For another series, the system named is human red blood cells. Put plainly: Hemolysis assay. The class given is cell-based. The settings on record: overall statement. On the procedure:
as §3, §4

Another series has as its system MRSA. Put plainly: Growth curve assay (Bioscreen C, 48 h). The series is classed as cell-based, Staphylococcus aureus. Particulars: 48 h growth curve; for strength of growth inhibition: concentrations closer to the IC50 values (5–25 µM). On the procedure: (§5) This suspension was diluted 1:20 in TSB.
(§6) For the growth curve assay, honeycomb plates (Growth Curves USA, Piscataway, NJ, USA) were used with TSB as the growth medium. Using bacterial cultures as described above, growth curve measurements were carried out in quintuplicates. For positive growth controls, wells with 10 µL of bacteria mixed into 90 µL of TSB were used. For quintuplicate treatment wells, 4-fold dilutions of AT compounds were used such that AT concentrations of 100, 25, 6.25, and 1.56 µM were tested. A 10 µL inoculum of bacteria prepared as described above was added to each dilution of the ATs. The growth in each well was measured in 15 min intervals for 48 h at 37 °C in the Bioscreen C instrument. The results were processed and analyzed with Microsoft Excel (version 2201) and GraphPad Prism 9.3.1 software (GraphPad by Dotmatics, Boston, MA, USA).

The next series concerns MSSA. Nature of the series: Growth curve assay (Bioscreen C, 48 h). The series is classed as cell-based, Staphylococcus aureus. The settings on record: 48 h growth curve; for strength of growth inhibition: concentrations closer to the IC50 values (5–25 µM). On the procedure: as §5, §6
Where [3] appears, read: Staphylococcus aureus, Table 1 and text, 18–24 h, CAMHB, read-out: IC50 (µM) MRSA.
The mark [4] stands for this setting: Staphylococcus aureus, Table S1, read-out: IC50 MRSA.
Setting [5] is: Staphylococcus aureus, Table S1.

As a reminder, the IC50 is the concentration that inhibits the measured activity by half. The term inhibition denotes the percentage by which the read-out fell short of the control. As to `O=C(c1ccccc1O)c1n[nH]nc1-c1ccc(Cl)cc1` [AT106], in series [1], the “Max SI (CC50/IC50)” value was 12.99, the IC50 amounted to 5.44 µM and the inhibition at 100 µM amounted to 87.4%. Also, in series [2] (setting [3]), the IC50 worked out at 22.4 µM. Further, in series [2] (setting [4]), the half-maximal inhibitory concentration (IC50) worked out at 23.5 µM. For the same molecule, in series [2] (setting [5]), testing at 100 µM gave an inhibition of 64.1%. In “Hemolysis assay”, the hemolysis at 1 h, 3.125 µM came to 0.6%; the hemolysis at 1 h, 6.25 µM was -0.1%; the hemolysis at 1 h, 12.5 µM was determined as 1.2%; the hemolysis at 1 h, 25 µM came to 1.2%. In addition, in the series “Hemolysis assay”, the hemolysis at 1 h, 50 µM is -0.3% and the hemolysis at 1 h, 100 µM came out at 1.1%. Further, the “hemolytic activity for human erythrocytes” value (“hemolytic activity” below) in the series with human red blood cells was “not hemolytic”. Besides, the “strength of growth inhibition” value in the series with MRSA was “weaker inhibitors”. Moreover, the “strength of growth inhibition” value in the series on MSSA was “weaker inhibitors”.
For the molecule `O=C(c1ccccc1O)c1n[nH]nc1-c1cccc(C(F)(F)F)c1` [AT116], in series [1], the “Max SI (CC50/IC50)” value came out at 16.01, the IC50 amounted to 3.18 µM and the inhibition at 100 µM was determined as 82%. Besides, in series [2] (setting [3]), the IC50 was 8.29 µM. Also, the 50% inhibitory concentration (IC50) in series [2] (setting [4]) came to 35.4 µM. The inhibition at 100 µM in series [2] (setting [5]) is 100%. For the same molecule, in the series “Hemolysis assay”, the hemolysis at 1 h, 3.125 µM is 0.8%; the hemolysis at 1 h, 6.25 µM is -0.7%; the hemolysis at 1 h, 12.5 µM came to 2.3%; the hemolysis at 1 h, 25 µM came to 2.1%. For the same molecule, in “Hemolysis assay”, the hemolysis at 1 h, 50 µM turned out to be 2.6% and the hemolysis at 1 h, 100 µM was determined as 3.5%. Further, the “hemolytic activity” value in the series with human red blood cells is on record as “not hemolytic”. Also, in the series on MRSA, the “strength of growth inhibition” value is reported as “weaker inhibitors”. Moreover, in the series on MSSA, the “strength of growth inhibition” value is reported as “weaker inhibitors”.
On to `O=C(c1ccccc1O)c1n[nH]nc1-c1ccc(Br)s1` [AT137], for which, in series [1], the half-inhibitory concentration (IC50) was found to be 3.09 µM and the inhibition at 100 µM was 87.5%. For the same molecule, the IC50 in series [2] (setting [3]) was < 6 µM. For the same molecule, the inhibition at 100 µM in series [2] (setting [5]) worked out at 93.8%. Besides, the concentration for half-maximal inhibition (IC50) in series [2] (Table 1 and text, 18–24 h, CAMHB, read-out: IC50 (µM) MRSA) is 3.87 µM. Besides, in the series “Hemolysis assay”, the hemolysis at 1 h, 3.125 µM is -2.6%; the hemolysis at 1 h, 6.25 µM is -0.5%; the hemolysis at 1 h, 12.5 µM is -0.8%; the hemolysis at 1 h, 25 µM turned out to be 2.7%. In “Hemolysis assay”, the hemolysis at 1 h, 50 µM worked out at 1.4% and the hemolysis at 1 h, 100 µM was 1.8%. The “hemolytic activity” value with human red blood cells is listed as “not hemolytic”. Besides, in the series with MRSA (0–100 µM, among the four ATs), the “relative inhibition of MRSA growth” value is recorded as “greatest inhibition”. Besides, in the series on MRSA (concentrations below 10 µM), the “blocking of bacterial growth” value is recorded as “successful in blocking bacterial growth”. The “strength of growth inhibition” value in the series on MRSA was “strong inhibitors”. Moreover, in the series with MSSA (concentrations below 10 µM), the “blocking of bacterial growth” value is recorded as “successful in blocking bacterial growth”. For the same molecule, the “strength of growth inhibition” value with MSSA is recorded as “strong inhibitors”.
